In US7314626B2, “Use of peptide vectors to improve the immune response to antigens” (SYNT:EM S.A., priority 2001, dated 2008):

Tests used:
Balb/c mice = assay: Immunization with flu NP peptide, CTL responses by 51Cr release assay; format: in vivo; conditions: FIG. 2; for specific CTL responses: intradermal, 25 μg flu NP peptide equivalent, spleens after three weeks; for mice eliciting CTL responses: three mice per group
K562 cells = assay: Cell uptake by K562 cells, flow cytometry (Mean Fluorescence Intensity); format: cell-based; conditions: for cell uptake as judged by the mean of fluorescence intensity: 37° C.
Description: Cell association was measured by flow cytometry using a FACScan (Becton Dickinson, USA). Free or vectorised compounds were incubated with K562 cells (5×10^5 cells per ml) in Optimem medium at 37° C. for various periods of time.
Thereafter, the cells were washed twice and then resuspended in 0.5 ml of ice-cold PBS for FACS analysis. Cell-associated fluorophores were excited at 488 nm and fluorescence was measured at 525 nm. A histogram of fluorescence intensity per cell (1×10^4) was obtained and the calculated mean of this distribution (Mean Fluorescence Intensity) was considered as representative of the amount of cell-associated peptide
Flu NP epitope was conjugated to SynB3 and SynB4 vectors. First, we compared the cell uptake of free and conjugated flu NP. Flu NP epitope was conjugated to SynB3 and SynB4 vectors and labelled with a fluorescent group (NBD). The compounds were incubated with K562 cells for various times and the cell uptake was measured using flow cytometry.
We also coupled rDPV protein with SynB3 and SynB4 vectors. The coupling procedure is described in the Protocols. First, we compared the cell uptake of free and coupled rDPV. The rDPV was labelled with a fluorescent group (NBD) in order to measure its uptake. The compounds were incubated with K562 cells for various times and the cell uptake was measured using flow cytometry.

C57B1/6/c mice = assay: Immunization with rDPV protein, DPV specific CTL responses by 51Cr release assay; format: in vivo; conditions: 5 μg intradermal on day 0 and day 21, spleens day 42, FIG. 4, effective response defined as >10% specific lysis
[1] = NBD-labelled free or conjugated flu NP, FIG. 1
[2] = NBD-labelled free or coupled rDPV, FIG. 3

Substance	specific CTL responses (Balb/c mice)	mice eliciting CTL responses (Balb/c mice)	cell uptake as judged by the mean of fluorescence intensity (K562 cells; [1])	cell uptake higher than the one observed for free flu NP (K562 cells; at 45 min)	mean CTL response (C57B1/6/c mice)	time at which cell uptake reached saturation (K562 cells; FIG. 3) [min]	cell uptake as judged by the mean of fluorescence intensity (K562 cells; [2])	cell uptake as judged by the mean of fluorescence intensity (K562 cells; NBD-labelled free or coupled rDPV, FIG. 3, listed as rDPV-SynB4)
AWSFRVSYRGISYRRSR-TYQRTRALV (SEQ ID NO:21) (AWSFRVSYRGISYRRSRTYQRTRALV) [SynB4/flu NP]	elicited specific CTL responses	all mice	increased significantly	about 5 fold				
AWSFRVSYRGISYRRSR-rDPV ((SEQ ID NO:18)-rDPV) [SynB4/rDPV]					strong CTL responses	100	increased significantly	slightly better than SynB3
RRLSYSRRRF-TYQRTRALV (SEQ ID NO:22) (RRLSYSRRRFTYQRTRALV) [SynB3/flu NP]	elicited specific CTL responses	all mice	increased significantly					
RRLSYSRRRF-rDPV ((SEQ ID NO:11)-rDPV) [SynB3/rDPV]					strong CTL responses	30	increased significantly	
TYQRTRALV (SEQ ID NO:20) [flu NP, reference compound]	failed to elicit specific CTL responses		very low uptake					
